In US20170252362A1, “METHODS & COMPOUNDS USEFUL IN HEMATOPOIETIC STEM CELL MEDICINE” (ECOLE POLYTECHNIQUE FEDERALE DE LAUSANNE (EPFL), priority 2014, published 2017):

What was measured:
[1] = test system: hematopoietic stem and progenitor pool sizes in the bone marrow; experiment: Flow cytometry analysis of hematopoietic stem and progenitor pool sizes in bone marrow of mice fed the agent; type: in vivo, mouse; conditions: 1 week treatment through the food, flow cytometry
Method: Bone marrow (BM) cells were isolated from C57Bl/6J and C57Bl/6J Ly5.1 from crushed femora and tibia. Flow cytometry analysis of hematopoietic stem and progenitor cells was performed on freshly isolated bone marrow (BM). Cell suspensions were filtered through a 70 μm cell strainer and erythroid cells were eliminated by incubation with red blood cells lysis buffer (eBioscences). Lineage-positive cells were removed with a magnetic lineage depletion kit (Miltenyi Biotech). Cell suspensions were stained with a panel of specific antibodies for stem and progenitor cells and analyzed or FACS-sorted respectively on a BD LSRII and BD FACS Aria II.
C57Bl/6J and C57Bl/6J Ly5.1 were purchased from Charles River Laboratories International and maintained in micro-isolator cages. Mice were provided continuously with sterile food, water and bedding. Nicotinamide riboside (NR) (custom synthesized as triflate salt by Novalix in Strasbourg) was supplied in the food at 0.4 g/Kg mouse and mice were treated for 1 and 4 weeks respectively.

[2] = test system: HSC mitochondrial activity; experiment: In vivo assay of HSC mitochondrial activity: TMRM flow cytometry of freshly isolated HSC from mice fed the compounds; design: species or system mouse; conditions: mice fed with the compounds
Description: The effect of agents on HSC mitochondrial activity has been assessed by measuring mitochondrial activity in vivo: freshly isolated HSC from mice fed with the compounds were stained by TMRM and analyzed by flow cytometry.

[3] = Konieczna et al., 2013; cited from earlier work

For NC(=O)c1cccnc1 [NAM, Nicotinamide], the “hematopoietic stem and progenitor compartments in BM” value [1] is given as “did not show significant expansion”, the “ability to reduce mitochondrial membrane potential in HSCs” value [2] is given as “not able to significantly reduce mitochondrial membrane potential in HSCs” and the “platelet levels in mice” value [3] is given as “did not increase the platelet levels”.
